Results from ChEMBL document CHEMBL4342404, “Anti-cholinesterase hybrids as multi-target-directed ligands against Alzheimer's disease (1998-2018)” (Bioorg Med Chem, 2019).

Biological target: Butyrylcholinesterase (Rattus norvegicus) (UniProt Q9JKC1)
Assay: Inhibition of rat serum butyrylcholinesterase using butyrylthiocholine iodide as substrate at 50 uM incubated for 15 mins by Ellman's method relative to control
Conditions: not given

Sequence of Butyrylcholinesterase (Rattus norvegicus) (Q9JKC1 as listed by the source): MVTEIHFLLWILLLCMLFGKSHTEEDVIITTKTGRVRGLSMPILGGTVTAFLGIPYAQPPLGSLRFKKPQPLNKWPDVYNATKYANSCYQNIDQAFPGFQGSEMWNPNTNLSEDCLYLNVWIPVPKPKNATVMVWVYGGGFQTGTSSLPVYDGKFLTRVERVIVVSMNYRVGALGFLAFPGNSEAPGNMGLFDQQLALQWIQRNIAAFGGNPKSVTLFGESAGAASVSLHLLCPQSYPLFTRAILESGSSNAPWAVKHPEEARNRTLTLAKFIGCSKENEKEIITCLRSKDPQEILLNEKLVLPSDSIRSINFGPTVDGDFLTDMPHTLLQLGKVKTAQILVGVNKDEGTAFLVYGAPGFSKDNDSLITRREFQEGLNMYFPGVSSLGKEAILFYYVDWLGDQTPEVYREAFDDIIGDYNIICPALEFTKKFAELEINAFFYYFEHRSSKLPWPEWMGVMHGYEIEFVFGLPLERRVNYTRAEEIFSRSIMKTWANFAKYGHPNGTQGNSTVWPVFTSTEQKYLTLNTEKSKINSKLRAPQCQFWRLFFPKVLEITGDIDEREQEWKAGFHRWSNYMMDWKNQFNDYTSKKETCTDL

Row | SMILES | inhibition
1 | CCN(CC)Cc1ccc(/C=C/c2cnc(C)c3c2COC(C)(C)O3)cc1O | 8.9%

Organism: Homo sapiens
Assay: Selectivity index, ratio of IC50 for human plasma butyrylcholinesterase to IC50 for human erythrocyte acetylcholinesterase
Conditions: not given

Row | SMILES | Selectivity Index
2 | COc1cc2oc(-c3ccc(NCCCNc4c5c(nc6cc(Cl)ccc46)CCCC5)cc3)cc(=O)c2c(OC)c1OC | 92
3 | COc1cc2oc(-c3ccc(NCCNc4c5c(nc6cc(Cl)ccc46)CCCC5)cc3)cc(=O)c2c(OC)c1OC | 742
4 | COc1cc2oc(-c3ccc(NCCCCNc4c5c(nc6cc(Cl)ccc46)CCCC5)cc3)cc(=O)c2c(OC)c1OC | 1690

Biological target: Acetylcholinesterase (Electrophorus electricus) (UniProt O42275)
Sequence (O42275 24-633 limits assumed): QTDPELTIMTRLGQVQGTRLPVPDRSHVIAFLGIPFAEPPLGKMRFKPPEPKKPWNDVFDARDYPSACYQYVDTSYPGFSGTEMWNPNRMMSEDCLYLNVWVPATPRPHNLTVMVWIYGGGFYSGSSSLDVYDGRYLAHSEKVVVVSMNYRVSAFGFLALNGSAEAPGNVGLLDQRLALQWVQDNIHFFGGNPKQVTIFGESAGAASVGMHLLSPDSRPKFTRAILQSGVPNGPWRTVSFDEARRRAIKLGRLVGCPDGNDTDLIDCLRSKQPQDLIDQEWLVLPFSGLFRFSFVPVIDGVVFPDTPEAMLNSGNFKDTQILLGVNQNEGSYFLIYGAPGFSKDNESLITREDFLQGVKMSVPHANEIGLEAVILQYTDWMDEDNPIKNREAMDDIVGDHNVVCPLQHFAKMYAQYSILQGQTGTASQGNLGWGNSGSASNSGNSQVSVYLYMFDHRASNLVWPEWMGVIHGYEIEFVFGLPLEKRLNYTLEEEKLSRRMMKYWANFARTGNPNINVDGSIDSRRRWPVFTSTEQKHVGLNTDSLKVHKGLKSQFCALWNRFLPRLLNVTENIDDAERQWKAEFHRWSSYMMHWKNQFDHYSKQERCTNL
Assay: Inhibition of electric eel AChE-induced amyloid beta 1 to 40 (unknown origin) aggregation at 100 uM incubated for 8 hrs by thioflavin-T fluorescence method relative to control
Conditions: not given

Row | SMILES | inhibition
5 | Cc1ccc2[nH]cc(CCNC(=O)/C=C\C(=O)Nc3ccc4c(c3)C(=O)c3cccc5ccnc-4c35)c2c1 | 57.7%
6 | O=C(/C=C/C(=O)Nc1ccc2c(c1)C(=O)c1cccc3ccnc-2c13)NCCc1c[nH]c2ccc(F)cc12 | 60.5%
7 | O=C(/C=C\C(=O)Nc1ccc2c(c1)C(=O)c1cccc3ccnc-2c13)NCCc1c[nH]c2ccc(F)cc12 | 32.5%
8 | COc1ccc2[nH]cc(CCNC(=O)/C=C\C(=O)Nc3ccc4c(c3)C(=O)c3cccc5ccnc-4c35)c2c1 | 50.4%

Biological target: T1, Acetylcholinesterase (Rattus norvegicus, UniProt P37136)
T1 sequence (P37136 whole entry): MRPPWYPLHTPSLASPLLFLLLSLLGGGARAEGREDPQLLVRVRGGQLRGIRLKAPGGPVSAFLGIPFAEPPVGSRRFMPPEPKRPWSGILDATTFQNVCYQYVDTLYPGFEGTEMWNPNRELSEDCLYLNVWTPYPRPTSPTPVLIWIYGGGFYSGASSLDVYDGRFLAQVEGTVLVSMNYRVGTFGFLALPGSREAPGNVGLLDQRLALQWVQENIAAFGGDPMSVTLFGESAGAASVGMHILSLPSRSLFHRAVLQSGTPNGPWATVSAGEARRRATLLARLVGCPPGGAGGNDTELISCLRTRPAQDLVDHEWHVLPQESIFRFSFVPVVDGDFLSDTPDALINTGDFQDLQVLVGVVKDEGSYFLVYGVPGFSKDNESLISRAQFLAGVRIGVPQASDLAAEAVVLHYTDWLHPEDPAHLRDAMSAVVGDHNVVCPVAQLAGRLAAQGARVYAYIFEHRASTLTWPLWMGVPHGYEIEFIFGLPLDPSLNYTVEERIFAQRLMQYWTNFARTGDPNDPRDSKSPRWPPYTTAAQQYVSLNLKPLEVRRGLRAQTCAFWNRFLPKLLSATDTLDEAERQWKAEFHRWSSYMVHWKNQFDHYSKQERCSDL
Assay: Antagonist activity at Acetylcholinesterase in Sprague-Dawley rat phrenic nerve-hemidiaphragm assessed as reversal of d-tubocurarine induced neuromuscular blockade after 15 mins
Conditions: read-out: I50

Row | SMILES | IC50
9 | CCC1=CC2Cc3nc4ccccc4c(N)c3C(C1)C2 (racemic) | 84 nM
10 | CC1=CC2Cc3nc4cc(Cl)ccc4c(N)c3C(C1)C2 (single isomer, unassigned; (-)) [HUPRINE Y] | 31.6 nM
11 | CC1=C[C@@H]2Cc3nc4cc(F)ccc4c(N)c3[C@H](C1)C2 | 48.6 nM
12 | CC1=CC2Cc3nc4cc(Cl)ccc4c(N)c3C(C1)C2 (racemic) [HUPRINE Y] | 84.3 nM
13 | CC1=CC2Cc3nc4ccccc4c(N)c3C(C1)C2 (racemic) | 176 nM

Biological target: Acetylcholinesterase (Electrophorus electricus, UniProt O42275)
Sequence (O42275 whole entry): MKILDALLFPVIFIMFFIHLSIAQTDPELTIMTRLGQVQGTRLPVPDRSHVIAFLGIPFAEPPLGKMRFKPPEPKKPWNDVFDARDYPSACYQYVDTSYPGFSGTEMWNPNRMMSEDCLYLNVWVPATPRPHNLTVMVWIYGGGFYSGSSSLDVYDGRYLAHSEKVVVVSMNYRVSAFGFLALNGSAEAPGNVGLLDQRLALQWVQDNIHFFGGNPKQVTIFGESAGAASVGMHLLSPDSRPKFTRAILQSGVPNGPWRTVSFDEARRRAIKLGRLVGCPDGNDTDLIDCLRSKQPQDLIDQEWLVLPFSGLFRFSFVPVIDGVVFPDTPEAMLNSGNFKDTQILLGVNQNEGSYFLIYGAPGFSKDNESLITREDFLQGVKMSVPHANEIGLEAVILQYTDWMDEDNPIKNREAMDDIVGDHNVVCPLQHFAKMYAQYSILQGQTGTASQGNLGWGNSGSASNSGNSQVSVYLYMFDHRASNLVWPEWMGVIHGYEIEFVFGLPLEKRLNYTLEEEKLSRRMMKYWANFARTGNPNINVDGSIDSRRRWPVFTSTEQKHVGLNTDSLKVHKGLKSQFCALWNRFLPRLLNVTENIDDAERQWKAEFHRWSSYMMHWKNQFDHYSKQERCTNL
Assay: Inhibition of electric eel AChE using acetylthiocholine iodide as substrate preincubated for 15 mins followed by substrate addition and measured at 1 min intervals by Ellman's method
Conditions: not given

Row | SMILES | IC50
14 | Cc1ccc2[nH]cc(CCNC(=O)/C=C\C(=O)Nc3ccc4c(c3)C(=O)c3cccc5ccnc-4c35)c2c1 | 5100 nM
15 | O=C(/C=C/C(=O)Nc1ccc2c(c1)C(=O)c1cccc3ccnc-2c13)NCCc1c[nH]c2ccc(F)cc12 | 2370 nM
16 | O=C(/C=C\C(=O)Nc1ccc2c(c1)C(=O)c1cccc3ccnc-2c13)NCCc1c[nH]c2ccc(F)cc12 | 15000 nM
17 | COc1ccc2[nH]cc(CCNC(=O)/C=C\C(=O)Nc3ccc4c(c3)C(=O)c3cccc5ccnc-4c35)c2c1 | 6100 nM

Biological target: Acetylcholinesterase (Homo sapiens, UniProt P22303)
Sequence (P22303 whole entry): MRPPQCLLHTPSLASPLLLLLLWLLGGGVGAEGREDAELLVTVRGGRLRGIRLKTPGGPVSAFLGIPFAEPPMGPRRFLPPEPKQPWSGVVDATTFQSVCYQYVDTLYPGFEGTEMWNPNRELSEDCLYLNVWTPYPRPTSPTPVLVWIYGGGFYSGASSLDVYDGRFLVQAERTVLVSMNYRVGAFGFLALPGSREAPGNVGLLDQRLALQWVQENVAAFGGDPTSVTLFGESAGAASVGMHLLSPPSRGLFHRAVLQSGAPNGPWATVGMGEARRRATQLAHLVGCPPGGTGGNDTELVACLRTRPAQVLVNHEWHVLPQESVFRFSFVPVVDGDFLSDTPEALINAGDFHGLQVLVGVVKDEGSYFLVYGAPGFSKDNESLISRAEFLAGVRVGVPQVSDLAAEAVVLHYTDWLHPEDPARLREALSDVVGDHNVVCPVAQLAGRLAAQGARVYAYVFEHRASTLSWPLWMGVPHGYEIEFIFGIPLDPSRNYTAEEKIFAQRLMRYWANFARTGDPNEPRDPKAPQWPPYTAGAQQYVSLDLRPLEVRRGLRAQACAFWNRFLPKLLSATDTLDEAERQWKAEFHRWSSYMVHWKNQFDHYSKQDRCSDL
Assay: Potency index, ratio of tacrine IC50 for human erythrocyte acetylcholinesterase to compound IC50 for homogenate acetylcholinesterase
Conditions: not given

Row | SMILES | Ratio IC50
18 | COc1ccc2[nH]cc(CCNC(=O)CCCCCNc3c4c(nc5cccc(Cl)c35)CCCC4)c2c1 | 70 to 43000
19 | COc1ccc2[nH]cc(CCNC(=O)CCCCCCNc3c4c(nc5ccccc35)CCCC4)c2c1 | 70 to 43000
20 | O=C(CCCCCNc1c2c(nc3cc(Cl)cc(Cl)c13)CCCC2)NCCc1c[nH]c2ccccc12 | 70 to 43000
21 | O=C(CCCCCCCNc1c2c(nc3ccccc13)CCCC2)NCCc1c[nH]c2ccc(O)cc12 | 70 to 43000
22 | O=C(CCCCCCNc1c2c(nc3cc(Cl)ccc13)CCCC2)NCCc1c[nH]c2ccccc12 | 70 to 43000
23 | S=C(CCCCCCCNc1c2c(nc3ccccc13)CCCC2)NCCc1c[nH]c2ccccc12 | 70 to 43000
24 | O=C(CCCCCNc1c2c(nc3ccccc13)CCCC2)NCCc1c[nH]c2ccccc12 | 70 to 43000
25 | O=C(CCCCCCCNc1c2c(nc3ccccc13)CCCC2)NCCc1c[nH]c2ccccc12 | 70 to 43000
26 | COc1ccc2[nH]cc(CCNC(=O)CCCCCCCNc3c4c(nc5ccccc35)CCCC4)c2c1 | 70 to 43000
27 | O=C(CCCCCNc1c2c(nc3c(Cl)cccc13)CCCC2)NCCc1c[nH]c2ccccc12 | 70 to 43000
28 | S=C(CCCCCNc1c2c(nc3ccccc13)CCCC2)NCCc1c[nH]c2ccccc12 | 70 to 43000
29 | O=C(CCCCCNc1c2c(nc3ccc(F)cc13)CCCC2)NCCc1c[nH]c2ccccc12 | 70 to 43000
30 | O=C(CCCCCCCNc1c2c(nc3cc(Cl)cc(Cl)c13)CCCC2)NCCc1c[nH]c2ccccc12 | 70 to 43000
31 | O=C(CCCCCCNc1c2c(nc3ccccc13)CCCC2)NCCc1c[nH]c2ccccc12 | 70 to 43000
32 | COc1ccc2[nH]cc(CCNC(=O)CCCCCNc3c4c(nc5cc(Cl)cc(Cl)c35)CCCC4)c2c1 | 70 to 43000
33 | O=C(CCCCCNc1c2c(nc3cc(Cl)ccc13)CCCC2)NCCc1c[nH]c2ccccc12 | 70 to 43000
34 | O=C(CCCCCNc1c2c(nc3ccccc13)CCCC2)NCCc1c[nH]c2ccc(O)cc12 | 70 to 43000
35 | COc1ccc2[nH]cc(CCNC(=O)CCCCNc3c4c(nc5ccccc35)CCCC4)c2c1 | 70 to 43000
36 | COc1ccc2[nH]cc(CCNC(=O)CCCCCNc3c4c(nc5cc(Cl)ccc35)CCCC4)c2c1 | 70 to 43000
37 | COc1ccc2[nH]cc(CCNC(=O)CCCCCNc3c4c(nc5ccccc35)CCCC4)c2c1 | 70 to 43000
38 | COc1ccc2[nH]cc(CCNC(=O)CCCCCCNc3c4c(nc5cc(Cl)cc(Cl)c35)CCCC4)c2c1 | 70 to 43000
39 | O=C(CCCCNc1c2c(nc3ccccc13)CCCC2)NCCc1c[nH]c2ccccc12 | 70 to 43000
40 | O=C(CCCCCCNc1c2c(nc3cc(Cl)cc(Cl)c13)CCCC2)NCCc1c[nH]c2ccccc12 | 70 to 43000

Test system: not listed separately
Assay: Antioxidant activity of compound by ORAC-FL assay relative to trolox
Assay type: functional
Conditions: not given

Row | SMILES | Ratio
41 | COc1cc(/C=C/C(=O)N(CCCC2CCN(Cc3ccccc3)CC2)CC(=O)Nc2ccc3ccccc3c2)ccc1O | 4.8 to 8.71
42 | COc1cc(/C=C/C(=O)N(CCCC2CCN(Cc3ccccc3)CC2)CC(=O)Nc2c(C)cccc2Cl)ccc1O | 4.8 to 8.71
43 | COc1cc(/C=C/C(=O)N(CC(=O)Nc2c(C)cccc2Cl)C2CCN(Cc3ccccc3)CC2)ccc1O | 4.8 to 8.71
44 | COc1cc(/C=C/C(=O)N(CC(=O)NCc2ccccc2)C2CCN(Cc3ccccc3)CC2)ccc1O | 4.8 to 8.71
45 | COc1cc(/C=C/C(=O)N(CCC2CCN(Cc3ccccc3)CC2)CC(=O)Nc2c(C)cccc2Cl)ccc1O | 4.8 to 8.71
46 | COc1cc(/C=C/C(=O)N(CCC2CCN(Cc3ccccc3)CC2)CC(=O)NCc2ccccc2)ccc1O | 4.8 to 8.71
47 | COc1cc(/C=C/C(=O)N(CC(=O)Nc2ccc3ccccc3c2)C2CCN(Cc3ccccc3)CC2)ccc1O | 4.8 to 8.71
48 | COc1ccc2[nH]cc(CCNC(=O)CN(C(=O)/C=C/c3ccc(O)c(OC)c3)C3CCN(Cc4ccccc4)CC3)c2c1 | 4.8 to 8.71
49 | COc1cc(/C=C/C(=O)N(CCCC2CCN(Cc3ccccc3)CC2)CC(=O)NCc2ccccc2)ccc1O | 4.8 to 8.71
50 | COc1cc(/C=C/C(=O)N(CCC2CCN(Cc3ccccc3)CC2)CC(=O)Nc2ccc3ccccc3c2)ccc1O | 4.8 to 8.71

Biological target: Sodium-dependent serotonin transporter (Rattus norvegicus, UniProt P31652)
Sequence (P31652 whole entry): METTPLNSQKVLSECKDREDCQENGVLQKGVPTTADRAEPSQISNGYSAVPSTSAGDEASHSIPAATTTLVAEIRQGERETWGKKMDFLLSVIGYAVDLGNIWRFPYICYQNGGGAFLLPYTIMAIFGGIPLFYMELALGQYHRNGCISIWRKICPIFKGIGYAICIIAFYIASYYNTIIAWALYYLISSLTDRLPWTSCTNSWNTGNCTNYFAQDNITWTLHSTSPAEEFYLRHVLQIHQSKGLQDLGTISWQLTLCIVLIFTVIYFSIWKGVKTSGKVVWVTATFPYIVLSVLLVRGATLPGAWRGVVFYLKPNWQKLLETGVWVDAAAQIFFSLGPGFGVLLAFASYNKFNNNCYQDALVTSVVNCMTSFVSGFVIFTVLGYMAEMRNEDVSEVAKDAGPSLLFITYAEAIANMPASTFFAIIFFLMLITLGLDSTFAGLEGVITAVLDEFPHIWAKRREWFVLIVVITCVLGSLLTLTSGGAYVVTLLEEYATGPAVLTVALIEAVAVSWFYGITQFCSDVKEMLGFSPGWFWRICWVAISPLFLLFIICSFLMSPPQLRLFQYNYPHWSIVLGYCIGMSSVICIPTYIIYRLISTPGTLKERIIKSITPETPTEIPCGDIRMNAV
Assay: Inhibition of rat synaptosome SERT assessed as reduction in [3H]5-HT uptake
Conditions: not given

Row | SMILES | IC50
51 | CN(C)C(=O)Oc1ccc([C@@H](N)CCOc2ccc([N+](=O)[O-])cc2)cc1 | 42 nM
52 | CN[C@H](CCOc1ccc([N+](=O)[O-])cc1)c1ccc(OC(=O)N(C)C)cc1 | 135 nM
53 | CN[C@@H](CCOc1ccc([N+](=O)[O-])cc1)c1ccc(OC(=O)N(C)C)cc1 | 42 nM
54 | CN(C)C(=O)Oc1ccc2c(c1)C=CCN[C@@H]2CCOc1ccc([N+](=O)[O-])cc1 | 6 nM
55 | CNC(CCOc1ccc([N+](=O)[O-])cc1)c1ccc(OC(=O)N(C)C)cc1 (racemic) | 44 nM
56 | CN(C)C(=O)Oc1ccc2c(c1)C=CCN(C)[C@H]2CCOc1ccc([N+](=O)[O-])cc1 | 930 nM

Biological target: T2, Acetylcholinesterase (Mus musculus, UniProt P21836)
T2 sequence (P21836 whole entry): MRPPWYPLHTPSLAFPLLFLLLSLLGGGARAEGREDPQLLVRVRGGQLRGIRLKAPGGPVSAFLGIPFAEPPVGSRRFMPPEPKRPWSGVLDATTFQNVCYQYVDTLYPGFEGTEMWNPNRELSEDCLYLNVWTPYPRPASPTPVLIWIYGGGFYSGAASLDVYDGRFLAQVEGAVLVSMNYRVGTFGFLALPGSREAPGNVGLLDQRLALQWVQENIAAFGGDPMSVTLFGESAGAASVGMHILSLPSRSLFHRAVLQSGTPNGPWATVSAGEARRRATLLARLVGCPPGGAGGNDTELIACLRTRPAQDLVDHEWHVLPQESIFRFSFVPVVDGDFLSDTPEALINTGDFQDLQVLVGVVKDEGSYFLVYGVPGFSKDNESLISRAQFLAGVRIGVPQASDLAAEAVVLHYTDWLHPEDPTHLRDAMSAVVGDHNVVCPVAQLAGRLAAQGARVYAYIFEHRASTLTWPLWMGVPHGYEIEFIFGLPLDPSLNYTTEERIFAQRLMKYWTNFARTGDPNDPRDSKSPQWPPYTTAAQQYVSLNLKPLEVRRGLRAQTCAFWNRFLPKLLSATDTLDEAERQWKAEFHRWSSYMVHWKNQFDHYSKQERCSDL
Assay: Inhibition of mouse brain acetylcholinesterase by Ellman's method
Conditions: not given

Row | SMILES | IC50
57 | CN(C)C(=O)Oc1ccc([C@@H](N)CCOc2ccc([N+](=O)[O-])cc2)cc1 | 101 nM
58 | CN[C@H](CCOc1ccc([N+](=O)[O-])cc1)c1ccc(OC(=O)N(C)C)cc1 | 143 nM
59 | CN[C@@H](CCOc1ccc([N+](=O)[O-])cc1)c1ccc(OC(=O)N(C)C)cc1 | 101 nM
60 | CN(C)C(=O)Oc1ccc2c(c1)C=CCN[C@@H]2CCOc1ccc([N+](=O)[O-])cc1 | 14 nM
61 | CNC(CCOc1ccc([N+](=O)[O-])cc1)c1ccc(OC(=O)N(C)C)cc1 (racemic) | 125 nM

Biological target: Cholinesterase (Homo sapiens, UniProt P06276)
Sequence (P06276 whole entry): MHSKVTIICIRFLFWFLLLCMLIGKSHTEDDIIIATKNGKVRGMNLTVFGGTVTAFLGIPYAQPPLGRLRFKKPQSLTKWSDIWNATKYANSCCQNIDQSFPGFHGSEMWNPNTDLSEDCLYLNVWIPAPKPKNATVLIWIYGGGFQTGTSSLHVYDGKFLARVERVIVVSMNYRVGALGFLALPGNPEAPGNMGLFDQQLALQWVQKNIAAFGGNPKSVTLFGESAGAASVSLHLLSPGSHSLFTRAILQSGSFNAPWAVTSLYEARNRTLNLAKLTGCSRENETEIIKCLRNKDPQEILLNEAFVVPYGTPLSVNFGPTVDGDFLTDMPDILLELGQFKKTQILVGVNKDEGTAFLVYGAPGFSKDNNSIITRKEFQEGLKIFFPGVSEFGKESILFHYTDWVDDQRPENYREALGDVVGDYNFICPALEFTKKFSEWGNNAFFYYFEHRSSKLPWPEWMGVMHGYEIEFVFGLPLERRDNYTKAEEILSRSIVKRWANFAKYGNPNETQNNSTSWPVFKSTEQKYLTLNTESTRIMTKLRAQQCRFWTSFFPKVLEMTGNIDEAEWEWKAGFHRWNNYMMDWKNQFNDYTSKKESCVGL
Assay: Inhibition of human serum butyrylcholinesterase using butyrylthiocholine iodide as substrate preincubated for 20 mins followed by substrate addition by Ellman's method
Conditions: not given

Row | SMILES | IC50
62 | c1ccc2c(NCCSSCCNc3c4c(nc5ccccc35)CCCC4)c3c(nc2c1)CCCC3 | 5.66 nM
